Assay results as given in patent US20070161644A1, “Erastin analogs and uses thereof” (priority 2005, published 2007).

Key:
[1] = tested on: BJ-TERT/LT/ST/RAS^V12 cells; experiment: Cell death in the presence of a pan-caspase inhibitor; assay type: cell-based, human; conditions: 50 μM inhibitor
[2] = tested on: BJ-TERT/LT/ST/RAS^V12 cells; experiment: Annexin V-FITC apoptosis assay; assay type: cell-based, human; conditions: camptothecin-treated (1 μM); untreated 6%
Experimental: BJ-TERT/LT/ST/RAS^V12 cells were seeded at 1×10^6 cells per dish in 100 mm dishes and allowed to grow overnight. Cells were treated with erastin (5 or 10 μg/ml) for 6, 8 or 11 h. A camptothecin-treated (0.4 μg/ml) control was maintained, treated at the time of seeding for 20 hours. After the treatment, cells were harvested with trypsin/EDTA and washed once with fresh medium containing serum and then twice with phosphate buffered saline. Cells were resuspended in 1× binding buffer (BD Pharmingen) at a concentration of 1×10^6 cells/ml. 100 μl (1×10^5 cells) was incubated with 5 μl of Annexin V-FITC (BD Pharmingen) and propidium iodiode (BD Pharmingen) for 15 minutes in the dark at room temperature. Then 400 μl of the 1× binding buffer was added and the cells analyzed by flow cytometry (Becton-Dickinson). Data were acquired and analyzed using Cellquest software.

[3] = tested on: cleaved, active caspase 3 in BJ-TERT/LT/ST/RAS^V12 cells; experiment: Western blot for active caspase-3; assay type: cell-based, human; conditions: western blot of lysates
Experimental: BJ-TERT/LT/ST/RAS^V12 cells were seeded prior to the experiment at 5×10^5 cells in 60 mm dishes. The cells were treated with 5 μg/ml erastin (9 μM) for 2, 4, 6, 8 or 10 hours. One dish was maintained for camptothecin treatment (0.4 μg/ml for 24 h) as a positive control. Cells were lysed after each time point in lysis buffer (50 mM HEPES KOH pH 7.4, […], 2 mM EDTA, 0.5% Triton X-100, 1.5 mM Na3VO4, 50 mM NaF, 10 mM sodium pyrophosphate, 10 mM sodium beta-glycerophosphate and protease inhibitor tablet (Roche)). Protein content was quantified using a Biorad protein assay reagent. Equal amounts of protein were resolved on 16% SDS-polyacrylamide gel. The electrophoresed proteins were transblotted onto a PVDF membrane, blocked with 5% milk and incubated with anti-active caspase-3 polyclonal antibody (BD Pharmingen) at 1:1500 dilution overnight at 4° C. The membrane was then incubated in anti-rabbit-HRP (Santa Cruz Biotechnology) at 1:3000 dilution for 1 hour and developed with an enhanced chemiluminescence mixture (NEN life science, Renaissance). To test for equivalent loading in each lane, blots were stripped, blocked, and probed with an anti-eIF-4E antibody (BD Transduction laboratories) at 1:1000 dilution.

[4] = tested on: BJ-TERT/LT/ST/RAS^V12 cells relative to BJ-TERT cells; experiment: Alamar Blue viability assay, tumorigenic versus wild type cells; assay type: cell-based, human
Experimental: Alamar Blue is reduced by mitochondrial enzyme activity in viable cells, causing both colorimetric and fluorescent changes (Nociari et al., 1998, J. Immunol. Methods 13, 157-167). Cells were seeded at a density of 6000 cells (50 μl) per well in a 384-well black, clear bottom plate using a syringe bulk dispenser (Zymark). 10 μl was removed from a two-fold serially diluted erastin plate (6× final concentration) using a 384 fixed cannula head, making the final concentration 20 μg/ml in the well with highest concentration. The plates were incubated for 24 hours. Alamar Blue (Biosource International) was added to each well by diluting 1:10 and incubated for 16 hours at 37° C. Fluorescence intensity was determined using a Packard Fusion platereader with an excitation filter centered on 535 nm and an emission filter centered on 590 nm. Average percentage inhibition at each concentration was calculated. Error bars indicate one standard deviation.
The effect of erastin or erastin B on cell viability was measured using Alamar Blue as described in Example 3 in both tumorigenic BJ-TERT/LT/ST/RAS^V12 (BJELR) cells and wild type BJ-TERT (BJEH) cells. In this example, cell viability was measured at 1, 2, and 3 days after treatment with erastin or erastin B (data for days 1 and 3 not shown). Average percentage inhibition at each concentration was measured.
The effect on cell viability of each of the two isomers of Compound 20 was measured using the Alamar Blue assay described in Example 3 in both tumorigenic BJ-TERT/LT/ST/RAS^V12 cells and wild type BJ-TERT cells. Average percentage inhibition at each concentration was measured.
The effect on cell viability of erastin or Compound 21 was measured using the Alamar Blue assay as described in Example 3 in both tumorigenic BJ-TERT/LT/ST/RAS^V12 cells and in wild type BJ-TERT cells. Average percentage inhibition at each concentration was measured. […]

[5] = tested on: VDAC isoforms, Prohibitin and Ribophorin; experiment: Pull-down with immobilized erastin derivatives; assay type: binding, human; conditions: pull-down from lysates, mitochondrial extract or MonoQ fractions
Experimental: Pull-down assays using immobilized erastin and cell lysates were used in an initial attempt to identify erastin binding partners inside a cell. Initial pull-down experiments were performed with HEK293, BJEH and BJELR whole cell lysates. In those experiments, a methyl-amino derivative of erastin (ERA-A6) was immobilized to Affigel 10 and incubated with lysate under standard pull-down conditions. The beads were washed and either eluted with 100 μM erastin or 0.8% N-lauroylsarcosine (sarkosyl). The eluates were subjected to mass spectrometric analysis.
Since Prohibitin and the VDAC isoforms are all mitochondrial proteins, Applicants enriched potential erastin targets by isolating mitochondria from cell lysates. The isolated mitochondrial extracts were then used in erastin pull-down experiments. In those erastin pull-down experiments with the mitochondrial extracts, Prohibitin, VDAC and Ribophorin were also identified by Western blot. […] The pull-downs were performed with 0.25 mg total protein of the mitochondrial extract. The beads were incubated with the extracts for 1.5 h at 4° C. and then washed several times. Proteins bound to the immobilized Erastin derivatives were eluted with 50 μL of 0.8% N-lauroylsarcosine solution. […]
Ribophorin and Prohibitin are rather acidic proteins with a calculated PI of 5.57 (Prohibitin) and 5.96 (Ribophorin I). […]

With `COC(=O)CC(NC(=O)OC(C)(C)C)C(=O)CF` (centres unmarked) [Boc-Asp(Ome)-fluoromethyl ketone] the “block of compound-induced cell death” value [1] was “partially blocked cell death induced by CPT, but not by erastin”.

`CC[C@@]1(O)C(=O)OCc2c1cc1n(c2=O)Cc2cc3ccccc3nc2-1` [Camptothecin, reference compound] was tested, and the “percentage of cells in M1 region (Annexin V staining)” value [2] was 38% and the “activated caspase 3” value [3] was “harbor activated caspase 3”.

`CCOc1ccccc1-n1c(C(C)N2CCN(C(=O)COc3ccc(CN)cc3)CC2)nc2ccccc2c1=O` (centres unmarked) [Compound 19] was tested, and the “lethality in BJ-TERT/LT/ST/RAS^V12 (BJELR) cells compared to BJ-TERT (BJEH) cells” value [4] was “selective lethality” and the “binding of cellular proteins to the immobilized compound” value [5] was “Prohibitin and Ribophorin were identified as binding to the Erastin beads”.
